The values that follow come from paper PMC6412019, “Discovery of NV-5138, the first selective Brain mTORC1 activator” (Scientific Reports, 2019).

The test system of one test is mTORC1. Nature of the test: mTORC1 activation (phosphorylated S6K1 Thr389 immunoblot) in leucine-starved HEK-293T cells. In kind it is cell-based, human. The protocol:
Expression of flag-WDR24 allows for immunoprecipitation of the Sestrin2/GATOR2 complex from amino acid-starved cells with an anti-flag antibody. […] Finally, to determine whether Sestrins and the GATOR pathway are required for NV-5138 activity, HEK-293T cells null for all three Sestrin isoforms or the GATOR1 component Nprl3 were obtained.
All cell lines were cultured in DMEM supplemented with 10% FBS and maintained at 37 °C and 5% CO2. HEK-293T cells stably expressing Flag-WDR24 was generated as previously described. […] Details of reagent used for cell culture can be found in Supplementary Information.
Cell lysates were prepared as previously described. Lysates were cleared by centrifugation at 13,200 rpm at 4 °C for 8 min. For anti-FLAG IPs, the FLAG-M2 affinity gel was added to approximately 2 mg of lysates and incubated with rotation for 3 h at 4 °C. Following IP, the beads were washed one time with Triton wash buffer containing 500 mM NaCl. […] After compound incubation, IPs were collected by centrifugation. Immunoprecipitated proteins were denatured and, resolved by SDS-PAGE. Membranes were imaged using the LI-COR imaging system. Reagents and antibodies used are listed in Supplementary Information.

In a further test the target is T1, Sestrin2 (Homo sapiens, UniProt P58004).
T1 sequence (P58004 1-480): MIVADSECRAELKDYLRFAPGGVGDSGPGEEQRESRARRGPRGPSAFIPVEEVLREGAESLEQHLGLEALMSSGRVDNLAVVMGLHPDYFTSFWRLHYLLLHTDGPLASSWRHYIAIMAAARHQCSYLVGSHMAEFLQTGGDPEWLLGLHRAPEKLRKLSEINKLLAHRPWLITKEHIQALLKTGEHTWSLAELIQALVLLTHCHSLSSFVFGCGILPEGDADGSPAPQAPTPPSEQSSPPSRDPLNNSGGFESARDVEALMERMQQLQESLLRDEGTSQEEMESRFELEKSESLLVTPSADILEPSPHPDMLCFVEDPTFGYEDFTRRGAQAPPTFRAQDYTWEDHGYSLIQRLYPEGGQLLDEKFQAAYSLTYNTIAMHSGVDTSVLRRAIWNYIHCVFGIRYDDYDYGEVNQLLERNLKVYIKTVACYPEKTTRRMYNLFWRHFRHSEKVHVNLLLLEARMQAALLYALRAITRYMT
Nature of the test: Thermal shift assay of purified Sestrin2. The test is classed as binding. Also noted: Full-length, codon-optimized human Sestrin2 was cloned into a pMAL6H -C5XT bacterial expression vector; His6-MBP (TEV-cleavable) (N, cleaved yes); made in house; host or cells: Escherichia coli LOBSTR (DE3). The note with it: average +/- SD, n = 3, read-out: Average Tm shift; for ΔTm at 1 µM: compound concentration 1 µM; for ΔTm at 10 µM: compound concentration 10 µM; for ΔTm at 100 µM: compound concentration 100 µM. The protocol:
Accordingly, we synthesized novel binding ligands incorporating these structural features. These compounds were tested for Sestrin2 binding using a thermal shift assay and for their ability to activate mTORC1 in leucine-starved Human Embryonic Kidney (HEK)-293T cells. These studies led to the identification of NV-5138 – a novel small molecule activator of mTORC1 signaling (Fig. 1a).
Full-length, codon-optimized human Sestrin2 was cloned into a pMAL6H -C5XT bacterial expression vector. Protein was purified onto a HisTrap FF crude column (GE Healthcare) followed by anion exchange chromatography then further purified via size-exclusion chromatography. Further details can be found in Supplementary Information.
Full-length, codon-optimized human Sestrin2 was cloned into a pMAL6H -C5XT bacterial expression vector such that Sestrin2 became N-terminally fused with a Tobacco Etch Virus nuclear-inclusion-a endopeptidase (TEV)–cleavable His6-MBP tag. This vector was transformed into Escherichia coli LOBSTR (DE3) cells (Kerafast) ^1. Cells were grown at 37 °C to 0.6 OD, then protein production was induced with 0.2 mM IPTG at 18 °C for 12–14 h. Cells were collected by centrifugation at 6,000g, resuspended in lysis buffer (50 mM Tris-HCl, pH 8.5, 400 mM NaCl, 5 mM MgCl2, 1 mM dithiothreitol (DTT), 0.2% CHAPS, 10% glycerol and 1 tablet of protease inhibitor tablets per 50 ml (Complete Inhibitor tablets from Roche w/o EDTA)), homogenized and sonicated. The lysate was cleared by centrifugation at 15,000g for 45 min. The soluble fraction (~250 ml) was loaded onto a HisTrap FF crude column (GE Healthcare) at 2 ml/min followed by washing with lysis buffer at 4 ml/min. After washing, the protein was eluted in lysis buffer containing 300 mM imidazole at 4 ml/min. Fractions corresponding to the Sestrin2 protein were identified via SDS-PAGE and pooled. The eluted Sestrin2 was then incubated with TEV protease and dialyzed overnight at 4 °C into 50 mM Tris-HCl, pH 8.5, 400 mM NaCl, 5 mM MgCl2, 1 mM dithiothreitol (DTT), 0.1% CHAPS, 10% glycerol. To separate the N-terminal tag from the cleaved Sesrin2, from cleaved sample was then re-applied to the HisTrap FF crude column and flow-through collected. The protein was then subjected to anion exchange chromatography on an 8ml Mono Q column (GE Healthcare) with a linear NaCl gradient and then further purified via size-exclusion chromatography on a Superdex S200 26/60 column (GE Healthcare) equilibrated in running buffer (50 mM Hepes pH 7.4, 200 mM NaCl, 1 mM DTT, 2.5 mM MgCl2, and 5% glycerol).

With `CC(C)(C[C@H](N)C(=O)O)C(F)F` [NV-5138, (S)-2-amino-5,5-difluoro-4,4-dimethylpentanoic acid], the “mTORC1 activation (pS6K1)” value with mTORC1 (leucine-starved unedited HEK-293T cells) is given as “activates mTORC1”. Further, at Sestrin2, the ΔTm at 1 µM came out at 0.57 ± 0.22 °C, the ΔTm at 10 µM amounted to 3.27 ± 0.16 °C and the ΔTm at 100 µM was 6.17 ± 0.18 °C.

As for `CC(C)C[C@H](N)C(=O)O` [Leucine, L-leucine, reference compound], the “mTORC1 activation (pS6K1)” value with mTORC1 (leucine-starved HEK-293T cells null for all three Sestrin isoforms) is “refractory”. Also, the “mTORC1 activation (pS6K1)” value in the test with mTORC1 (leucine-starved HEK-293T cells null for the GATOR1 component Nprl3) is given as “refractory”. Besides, on Sestrin2, the ΔTm at 1 µM worked out at 0.61 ± 0.59 °C, the ΔTm at 10 µM was 3.64 ± 0.41 °C and the ΔTm at 100 µM was found to be 6.49 ± 0.2 °C.
